Source: US10202353B2, “Therapeutic compounds” (Gilead Sciences, Inc., priority 2014, dated 2019)

Key:
HIV-IIIb = test: Test A: Antiviral assay in MT4 Cells; type: cell-based, HIV-1; details: Human immunodeficiency virus 1, 120 h; 2 μM drug concentration; MT4 cells infected with HIV-IIIb, 5 days; calculated from dose response curve; values normalized to 100% where greater than 100; read-out: % Inhibition at 2 μM (percent inhibition of virus-induced cell killing)
Procedure: (§1) For the antiviral assay, 40 μL of a concentration required to achieve a final effective 1× test concentration of 3-fold serially diluted compound in culture medium with 10% FBS was added to each well of a 384-well plate (10 concentrations) in quadruplicate. MT4 cells were next mixed with HIV-IIIb at an m.o.i of 0.003 for 1 hour, after which time 35 μL of virus/cell mixture (2000 cells) was immediately added to each well containing 40 μL of diluted compound. The plates were then incubated at 37° C. for 5 days. After 5 days of incubation, 25 μl of 2× concentrated CellTiter-Glo™ Reagent (catalog # G7571, Promega Biosciences, Inc., Madison, Wis.) was added to each well containing MT-4 cells. Cell lysis was carried out by incubating at room temperature for 10 min and then chemiluminescence was read. EC50 values were calculated as the compound concentration that caused a 50% decrease in luminescence signal, a measure of HIV-1 replication. Percent inhibition of virus-induced cell killing calculated from the dose response curve at 2 μM drug concentration is shown in the table below.

[1] = Test B: Cytotoxicity Assay; type: cell-based; details: human, uninfected MT4 cells, same protocol as Test A
Procedure: as §1, with “below. Compound cytotoxicity and the corresponding CC50 values was determined using the same protocol as described in the antiviral assay (Test A) except that uninfected cells were used.” for “below.”

Compound	inhibition at 2 µM (HIV-IIIb)	CC50 at 5 days [1]
COc1ccc(N(C)C(=O)[C@H](Cc2cc(F)cc(F)c2)NC(=O)Cn2nc(C(F)(F)F)c3c2C(C)CCC3)cc1 (stereo partly drawn) [Compound 26, (2S)-3-(3,5-difluorophenyl)-N-(4-methoxyphenyl)-N-methyl-2-(2-(7-methyl-3-(trifluoromethyl)-4,5,6,7-tetrahydro-1H-indazol-1-yl)acetamido)propanamide]	100%	9.82 µM
COc1ccc(N(C)C(=O)[C@H](Cc2cc(F)cc(F)c2)NC(=O)Cn2nc(C(F)(F)F)c3c2CCC(C)(O)C3)cc1 (stereo partly drawn) [Compound 29, (2S)-3-(3,5-difluorophenyl)-2-(2-(5-hydroxy-5-methyl-3-(trifluoromethyl)-4,5,6,7-tetrahydro-1H-indazol-1-yl)acetamido)-N-(4-methoxyphenyl)-N-methylpropanamide]	82%	32.1 µM
CN(C(=O)[C@H](Cc1cccc([N+](=O)[O-])c1)NC(=O)Cn1nc(C(F)(F)F)c2c1CCCC2)c1ccccc1 [Compound 17, (S)—N-methyl-3-(3-nitrophenyl)-N-phenyl-2-(2-(3-(trifluoromethyl)-4,5,6,7-tetrahydro-1H-indazol-1-yl)acetamido)propanamide]	0%	19.2 µM
CN(C(=O)[C@H](Cc1cccc(Cl)c1)NC(=O)Cn1nc(C(F)(F)F)c2c1CCCC2)c1ccccc1 [Compound 16, (S)-3-(3-chlorophenyl)-N-methyl-N-phenyl-2-(2-(3-(trifluoromethyl)-4,5,6,7-tetrahydro-1H-indazol-1-yl)acetamido)propanamide]	58%	16.7 µM
COc1ccc(N(C)C(=O)[C@H](Cc2cc(F)cc(F)c2)NC(=O)Cn2ncc3c2CCCC3)cc1 [Compound 31, (S)-3-(3,5-difluorophenyl)-N-(4-methoxyphenyl)-N-methyl-2-(2-(4,5,6,7-tetrahydro-1H-indazol-1-yl)acetamido)propanamide]	78%	> 53 µM
COc1ccc(N(C)C(=O)[C@H](Cc2cc(F)cc(F)c2)NC(=O)Cn2nc(C(F)(F)F)c3c2CCC2(C3)OCCO2)cc1 [Compound 27]	32%	19.9 µM
COc1ccc(N(C)C(=O)[C@H](Cc2cc(F)cc(F)c2)NC(=O)Cn2nc(C(F)(F)F)c3c2CC(C)CC3)cc1 (stereo partly drawn) [Compound 25, (2S)-3-(3,5-difluorophenyl)-N-(4-methoxyphenyl)-N-methyl-2-(2-(6-methyl-3-(trifluoromethyl)-4,5,6,7-tetrahydro-1H-indazol-1-yl)acetamido)propanamide]	100%	11.1 µM
